Reference: the NIST ThermoML archive (doi:10.1021/je060355j)

What was measured:
[1] = excess molar enthalpy (molar enthalpy of mixing); xn = mol fraction of the nth substance listed; details: 101.32 kPa, Liquid
[2] = xn = mol fraction of the nth substance listed; details: 101.32 kPa, Liquid

CCOC=O [ethyl methanoate] + CCCCCC
Details | excess molar enthalpy [kcal/mol] | mass density [kg/m3]
[1], 291.15 K, x1 = 0.092 | 0.107 | –
[1], 291.15 K, x1 = 0.209 | 0.228 | –
[1], 291.15 K, x1 = 0.3175 | 0.305 | –
[1], 291.15 K, x1 = 0.4075 | 0.346 | –
[1], 291.15 K, x1 = 0.4677 | 0.364 | –
[1], 291.15 K, x1 = 0.5161 | 0.368 | –
[1], 291.15 K, x1 = 0.5681 | 0.365 | –
[1], 291.15 K, x1 = 0.6185 | 0.344 | –
[1], 291.15 K, x1 = 0.6714 | 0.319 | –
[1], 291.15 K, x1 = 0.7272 | 0.286 | –
[1], 291.15 K, x1 = 0.7841 | 0.243 | –
[1], 291.15 K, x1 = 0.843 | 0.188 | –
[1], 291.15 K, x1 = 0.9022 | 0.127 | –
[1], 291.15 K, x1 = 0.9514 | 0.0729 | –
[1], 318.15 K, x1 = 0.1003 | 0.149 | –
[1], 318.15 K, x1 = 0.1895 | 0.244 | –
[1], 318.15 K, x1 = 0.2842 | 0.323 | –
[1], 318.15 K, x1 = 0.3713 | 0.367 | –
[1], 318.15 K, x1 = 0.4495 | 0.389 | –
[1], 318.15 K, x1 = 0.5137 | 0.394 | –
[1], 318.15 K, x1 = 0.5599 | 0.387 | –
[1], 318.15 K, x1 = 0.5991 | 0.374 | –
[1], 318.15 K, x1 = 0.6795 | 0.337 | –
[1], 318.15 K, x1 = 0.7593 | 0.281 | –
[1], 318.15 K, x1 = 0.8299 | 0.216 | –
[1], 318.15 K, x1 = 0.8814 | 0.155 | –
[1], 318.15 K, x1 = 0.9215 | 0.105 | –
[1], 318.15 K, x1 = 0.966 | 0.051 | –
[2], 291.15 K, x1 = 0.0495 | – | 667.8
[2], 291.15 K, x1 = 0.1025 | – | 675.4
[2], 291.15 K, x1 = 0.1497 | – | 682.8
[2], 291.15 K, x1 = 0.2049 | – | 692.1
[2], 291.15 K, x1 = 0.2531 | – | 700.4
[2], 291.15 K, x1 = 0.3068 | – | 710.6
[2], 291.15 K, x1 = 0.3937 | – | 728.2
[2], 291.15 K, x1 = 0.5016 | – | 753
[2], 291.15 K, x1 = 0.6039 | – | 780
[2], 291.15 K, x1 = 0.6996 | – | 808.2
[2], 291.15 K, x1 = 0.7504 | – | 824.6
[2], 291.15 K, x1 = 0.8029 | – | 842.4
[2], 291.15 K, x1 = 0.9016 | – | 880.3
[2], 291.15 K, x1 = 0.9065 | – | 882.4
[2], 291.15 K, x1 = 0.9522 | – | 901.9
[2], 291.15 K, x1 = 0.958 | – | 905
[2], 291.15 K, x1 = 1 | – | 924.7
[2], 298.15 K, x1 = 0.0777 | – | 665.63
[2], 298.15 K, x1 = 0.1291 | – | 673.25
[2], 298.15 K, x1 = 0.1715 | – | 679.95
[2], 298.15 K, x1 = 0.2501 | – | 693.44
[2], 298.15 K, x1 = 0.327 | – | 707.73
[2], 298.15 K, x1 = 0.4765 | – | 739.84
[2], 298.15 K, x1 = 0.5354 | – | 754.13
[2], 298.15 K, x1 = 0.5955 | – | 769.95
[2], 298.15 K, x1 = 0.6441 | – | 783.83
[2], 298.15 K, x1 = 0.6993 | – | 800.39
[2], 298.15 K, x1 = 0.7956 | – | 832.38
[2], 298.15 K, x1 = 0.884 | – | 865.42
[2], 298.15 K, x1 = 0.9643 | – | 898.98
[2], 298.15 K, x1 = 1 | – | 915.16
[2], 308.15 K, x1 = 0.0485 | – | 651.9
[2], 308.15 K, x1 = 0.1103 | – | 660.5
[2], 308.15 K, x1 = 0.1539 | – | 667.2
[2], 308.15 K, x1 = 0.2548 | – | 683.8
[2], 308.15 K, x1 = 0.3998 | – | 711.6
[2], 308.15 K, x1 = 0.4915 | – | 731.9
[2], 308.15 K, x1 = 0.5935 | – | 757.8
[2], 308.15 K, x1 = 0.6998 | – | 788
[2], 308.15 K, x1 = 0.7971 | – | 819.9
[2], 308.15 K, x1 = 0.9063 | – | 860.7
[2], 308.15 K, x1 = 0.9488 | – | 878.7
[2], 308.15 K, x1 = 1 | – | 902.07
[2], 318.15 K, x1 = 0.0476 | – | 642.18
[2], 318.15 K, x1 = 0.0875 | – | 647.84
[2], 318.15 K, x1 = 0.1044 | – | 649.54
[2], 318.15 K, x1 = 0.1471 | – | 655.88
[2], 318.15 K, x1 = 0.2199 | – | 667.46
[2], 318.15 K, x1 = 0.3041 | – | 681.93
[2], 318.15 K, x1 = 0.4061 | – | 701.97
[2], 318.15 K, x1 = 0.5293 | – | 729.7
[2], 318.15 K, x1 = 0.5869 | – | 744.1
[2], 318.15 K, x1 = 0.6984 | – | 775.52
[2], 318.15 K, x1 = 0.7476 | – | 790.78
[2], 318.15 K, x1 = 0.7932 | – | 805.56
[2], 318.15 K, x1 = 0.8873 | – | 840.19
[2], 318.15 K, x1 = 0.9692 | – | 874.21
[2], 318.15 K, x1 = 1 | – | 888.42

CCCOC=O [propyl methanoate] + CCCCCC
Details | excess molar enthalpy [kcal/mol] | mass density [kg/m3]
[1], 291.15 K, x1 = 0.0969 | 0.118 | –
[1], 291.15 K, x1 = 0.186 | 0.187 | –
[1], 291.15 K, x1 = 0.2656 | 0.235 | –
[1], 291.15 K, x1 = 0.3316 | 0.264 | –
[1], 291.15 K, x1 = 0.3921 | 0.282 | –
[1], 291.15 K, x1 = 0.4458 | 0.289 | –
[1], 291.15 K, x1 = 0.4941 | 0.29 | –
[1], 291.15 K, x1 = 0.5356 | 0.287 | –
[1], 291.15 K, x1 = 0.5758 | 0.274 | –
[1], 291.15 K, x1 = 0.6321 | 0.258 | –
[1], 291.15 K, x1 = 0.6905 | 0.23 | –
[1], 291.15 K, x1 = 0.7533 | 0.195 | –
[1], 291.15 K, x1 = 0.8171 | 0.154 | –
[1], 291.15 K, x1 = 0.885 | 0.0993 | –
[1], 291.15 K, x1 = 0.9453 | 0.0458 | –
[1], 318.15 K, x1 = 0.0848 | 0.113 | –
[1], 318.15 K, x1 = 0.1889 | 0.202 | –
[1], 318.15 K, x1 = 0.2934 | 0.268 | –
[1], 318.15 K, x1 = 0.3854 | 0.305 | –
[1], 318.15 K, x1 = 0.4624 | 0.32 | –
[1], 318.15 K, x1 = 0.521 | 0.32 | –
[1], 318.15 K, x1 = 0.5945 | 0.309 | –
[1], 318.15 K, x1 = 0.6631 | 0.284 | –
[1], 318.15 K, x1 = 0.7368 | 0.245 | –
[1], 318.15 K, x1 = 0.8154 | 0.19 | –
[1], 318.15 K, x1 = 0.8906 | 0.124 | –
[1], 318.15 K, x1 = 0.9523 | 0.0594 | –
[2], 291.15 K, x1 = 0.0544 | – | 670.1
[2], 291.15 K, x1 = 0.0893 | – | 676
[2], 291.15 K, x1 = 0.1509 | – | 687.4
[2], 291.15 K, x1 = 0.2001 | – | 696.5
[2], 291.15 K, x1 = 0.248 | – | 705.8
[2], 291.15 K, x1 = 0.2521 | – | 706.6
[2], 291.15 K, x1 = 0.3979 | – | 737.6
[2], 291.15 K, x1 = 0.5017 | – | 761.8
[2], 291.15 K, x1 = 0.6122 | – | 789.6
[2], 291.15 K, x1 = 0.6985 | – | 813.1
[2], 291.15 K, x1 = 0.7473 | – | 827
[2], 291.15 K, x1 = 0.8013 | – | 842.8
[2], 291.15 K, x1 = 0.8499 | – | 857.8
[2], 291.15 K, x1 = 0.9057 | – | 875.5
[2], 291.15 K, x1 = 0.9568 | – | 892.9
[2], 291.15 K, x1 = 1 | – | 907.8
[2], 298.15 K, x1 = 0.0787 | – | 668.91
[2], 298.15 K, x1 = 0.1478 | – | 681.52
[2], 298.15 K, x1 = 0.2237 | – | 695.63
[2], 298.15 K, x1 = 0.2941 | – | 709.36
[2], 298.15 K, x1 = 0.3597 | – | 722.93
[2], 298.15 K, x1 = 0.4297 | – | 738.37
[2], 298.15 K, x1 = 0.4878 | – | 751.68
[2], 298.15 K, x1 = 0.5453 | – | 765.36
[2], 298.15 K, x1 = 0.6019 | – | 779.74
[2], 298.15 K, x1 = 0.6599 | – | 794.74
[2], 298.15 K, x1 = 0.7154 | – | 810
[2], 298.15 K, x1 = 0.765 | – | 824.15
[2], 298.15 K, x1 = 0.812 | – | 838.34
[2], 298.15 K, x1 = 0.8656 | – | 854.66
[2], 298.15 K, x1 = 0.921 | – | 872.18
[2], 298.15 K, x1 = 0.9567 | – | 884.05
[2], 298.15 K, x1 = 1 | – | 899.08
[2], 308.15 K, x1 = 0.0693 | – | 657.5
[2], 308.15 K, x1 = 0.1125 | – | 665.1
[2], 308.15 K, x1 = 0.1993 | – | 680.76
[2], 308.15 K, x1 = 0.3036 | – | 701.12
[2], 308.15 K, x1 = 0.3975 | – | 720.81
[2], 308.15 K, x1 = 0.5069 | – | 745.56
[2], 308.15 K, x1 = 0.5902 | – | 765.82
[2], 308.15 K, x1 = 0.7035 | – | 795.66
[2], 308.15 K, x1 = 0.8034 | – | 824.55
[2], 308.15 K, x1 = 0.9002 | – | 854.72
[2], 308.15 K, x1 = 0.9482 | – | 870.44
[2], 308.15 K, x1 = 1 | – | 888.36
[2], 318.15 K, x1 = 0.0796 | – | 648.93
[2], 318.15 K, x1 = 0.1547 | – | 661.76
[2], 318.15 K, x1 = 0.2278 | – | 674.93
[2], 318.15 K, x1 = 0.2909 | – | 687.08
[2], 318.15 K, x1 = 0.3611 | – | 701.46
[2], 318.15 K, x1 = 0.4273 | – | 715.75
[2], 318.15 K, x1 = 0.487 | – | 729.26
[2], 318.15 K, x1 = 0.5747 | – | 750.24
[2], 318.15 K, x1 = 0.6031 | – | 757.34
[2], 318.15 K, x1 = 0.6617 | – | 772.47
[2], 318.15 K, x1 = 0.7118 | – | 785.91
[2], 318.15 K, x1 = 0.7661 | – | 801.18
[2], 318.15 K, x1 = 0.8123 | – | 814.59
[2], 318.15 K, x1 = 0.8602 | – | 829.22
[2], 318.15 K, x1 = 0.9109 | – | 845.53
[2], 318.15 K, x1 = 0.9581 | – | 860.97
[2], 318.15 K, x1 = 1 | – | 875.32
